Tests used:
[1] = test system: Caenorhabditis elegans N2; assay: mean nematode size ln(EXT) after 48 h, plate-adjusted (DMSO control set to 6) (ln(EXT), control-adjusted); higher = larger nematodes / less growth inhibition; conditions: exposure time 48 h
In short: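 Chemical at 0.5–200 µM was tested on synchronised C. elegans N2 L1 larvae grown for 48 h at 20°C in K-medium with killed OP50 and 1% DMSO. Per-worm Biosort extinction, cleared of debris by a growth model, was natural-logged and averaged per well to give mean size. Plates were normalised by subtracting the vehicle control mean and adding 6.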

[2] = test system: Caenorhabditis elegans N2; assay: lowest effective concentration for larval growth inhibition (size below effect threshold); higher = less potent; conditions: exposure time 48 h
In short: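 Worm size was taken as per-worm extinction on the Biosort, log-transformed and turned into well means. The larvae (C. elegans N2, L1 stage, 50 per 96-well) had spent 48 h at 20°C in K-medium with killed bacteria, 1% DMSO and 0.5, 1, 5, 10, 50, 100 or 200 µM chemical. The lowest effective concentration marks the first dose where the plate-adjusted mean size drops under a cutoff and remains under it at every higher dose; the cutoff is 5.665.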

SMILES | mean nematode size ln(EXT) (ln) ([1]; 0.5 µM) | mean nematode size ln(EXT) (ln) ([1]; 1 µM) | mean nematode size ln(EXT) (ln) ([1]; 5 µM) | mean nematode size ln(EXT) (ln) ([1]; 10 µM) | mean nematode size ln(EXT) (ln) ([1]; 50 µM) | mean nematode size ln(EXT) (ln) ([1]; 100 µM) | mean nematode size ln(EXT) (ln) ([1]; 200 µM) | lowest effective concentration [2]
CC(=O)C(C)=CC1C(C)=CCCC1(C)C (stereo unspecified) | 5.84 | 5.8 | 5.9 | 5.86 | 5.84 | 5.93 | 5.79 | > 200 µM
CC(C)(O)c1ccc(CNC(=O)c2cccnc2Oc2ccc(F)cc2)cc1 | 5.74 | 6.01 | 5.84 | 5.9 | 5.91 | 5.9 | 5.72 | > 200 µM
CC(C)(O)c1ccc(CNC(=O)c2cccnc2Oc2ccc3nonc3c2)cc1 | 5.94 | 5.81 | 5.9 | 5.71 | 5.92 | 5.81 | 5.8 | > 200 µM
CC(C)c1cccc(C(C)C)c1NC(=O)NS(=O)(=O)c1cc(C(C)(C)O)co1 | 5.93 | 5.86 | 5.97 | 5.91 | 6 | 5.8 | 5.79 | > 200 µM
CCCCc1ccc2c(n1)[C@@H](c1ccc(OC)cc1C[C@H](C)C(=O)O)[C@H](C(=O)O)[C@H]2c1ccc2c(c1)OCO2 | 5.82 | 5.87 | 5.83 | 6.32 | 5.91 | 5.95 | 5.88 | > 200 µM
CCCOc1ccc(S(=O)(=O)N2CCN(CC)CC2)cc1-c1nc2c(CC)n(Cc3ccccn3)nc2c(=O)[nH]1 | 5.7 | 6.03 | 5.83 | 5.88 | 5.91 | 5.88 | 5.69 | > 200 µM
CCN(C(=O)c1cc(C)cc(OC[C@H](C)Nc2ccncc2)c1)C(C)C | 5.67 | 5.78 | 5.59 | 5.63 | 5.56 | 5.61 | 5.82 | > 200 µM
CCn1nc(C)c2c1C(=O)NCC(c1ccc(O)cc1)=N2 | 5.87 | 5.81 | 5.85 | 5.89 | 5.87 | 5.9 | 5.71 | > 200 µM
CCn1nc(Cc2ccccc2)cc1C1CCN(C[C@H]2C[C@H](N(C)[C@@H](C(=O)O)C(C)C)C[C@@H]2c2cccc(F)c2)CC1 | 5.93 | 5.9 | 5.91 | 5.93 | 5.92 | 5.83 | 5.73 | > 200 µM
CN(C)C(=O)NC1(c2ccccc2)CCN(CC[C@@]2(c3ccc(F)c(F)c3)CN(C(=O)c3ccccc3)CCO2)CC1 | 5.89 | 5.86 | 5.86 | 5.8 | 5.9 | 5.92 | 5.68 | > 200 µM
CN(C)CCCN(C)CCCN(C)C | 5.82 | 5.85 | 5.88 | 5.85 | 5.81 | 5.89 | 5.96 | > 200 µM
COCc1nnc(-c2ccc[n+]([O-])c2)n1-c1c(Cl)c(Cl)cc2[nH]c(=O)c(=O)[nH]c12 | 5.89 | 6.15 | 6.22 | 6.24 | 6.17 | 6.08 | 5.67 | > 200 µM
CO[C@@H]1COCC[C@@H]1N[C@@H]1CC[C@@](C(=O)N2CCc3ncc(C(F)(F)F)cc3C2)(C(C)C)C1 | 5.89 | 5.88 | 5.95 | 5.95 | 5.93 | 5.86 | 5.84 | > 200 µM
COc1cc(-c2nc(NC(=O)c3cc4cc(C)cc(C)c4n3CC(=O)O)sc2CCC2CCCCC2)c(OC)cc1Cl | 5.89 | 5.89 | 5.88 | 5.87 | 5.92 | 5.83 | 5.69 | > 200 µM
COc1ccc2sc(C(=O)Nc3nnn[nH]3)c(OC(C)C)c2c1 | 5.89 | 5.99 | 5.89 | 6.11 | 5.82 | 5.86 | 6.09 | > 200 µM
C[C@@H](Oc1ccc(CNC(=O)c2cccnc2Oc2ccc3c(c2)OCO3)c(F)c1)C(=O)O | 5.79 | 5.84 | 5.86 | 5.84 | 5.92 | 5.86 | 5.72 | > 200 µM
Cc1nc(-c2ccccn2)ncc1C(=O)Nn1cc(C)c2cc(F)ccc21 | 5.82 | 5.84 | 5.9 | 5.83 | 5.73 | 5.77 | 5.86 | > 200 µM
Cc1nc(C)nc(N2C[C@@H](C)N(c3ccnc([C@@H](C)O)n3)[C@@H](C)C2)n1 | 5.83 | 5.77 | 5.75 | 5.69 | 5.71 | 5.7 | 5.85 | > 200 µM
Cc1ncc([C@@H](CCCCCCc2ccc3c(n2)NCCC3)CC(=O)O)cn1 | 5.81 | 5.79 | 5.84 | 5.84 | 5.8 | 5.87 | 5.86 | > 200 µM
N#C[C@@H]1CC(F)(F)CN1C(=O)CNC1CC2CCC(C1)N2c1ncccn1 (stereo partly specified) | 5.82 | 5.89 | 5.85 | 6 | 5.95 | 5.78 | 5.85 | > 200 µM
NCC1(Cc2noc(=O)[nH]2)CCCCC1 | 5.77 | 5.69 | 5.76 | 5.73 | 5.69 | 5.72 | 5.7 | > 200 µM
O=C(N[C@H]1CN2CCC1CC2)c1ccc2c(c1)OCCO2 | 5.82 | 5.83 | 5.8 | 5.8 | 5.81 | 5.81 | 5.67 | > 200 µM
O=C(O)c1ccc2c(c1)nc(C(=O)NC1CCN(C3CC3)CC1)n2Cc1cc(-c2ccc(Cl)s2)on1 | 5.76 | 5.81 | 5.71 | 5.87 | 5.82 | 5.69 | 5.86 | > 200 µM
OCC(CO)n1cnc(-c2ccc(F)cc2)c1-c1ccnc(Oc2ccccc2)n1 | 6.02 | 5.98 | 5.97 | 6.03 | 6.04 | 5.98 | 5.82 | > 200 µM
C1CC2OC2CC1C1CO1 (mixture of isomers) [Vinylcyclohexene dioxide, mixture of isomers] | 5.91 | 5.97 | 5.93 | 5.74 | 5.93 | 5.91 | 5.7 | > 200 µM
CC(C)CC(C)(O)C#CC(C)(O)CC(C)C (racemic) | 5.77 | 5.77 | 5.78 | 5.78 | 5.64 | 5.75 | 5.81 | > 200 µM

SMILES | mean nematode size ln(EXT) (ln) ([1]; 0.5 µM) | mean nematode size ln(EXT) (ln) ([1]; 1 µM) | mean nematode size ln(EXT) (ln) ([1]; 5 µM) | mean nematode size ln(EXT) (ln) ([1]; 10 µM) | mean nematode size ln(EXT) (ln) ([1]; 50 µM) | mean nematode size ln(EXT) (ln) ([1]; 100 µM) | mean nematode size ln(EXT) (ln) ([1]; 200 µM) | lowest effective concentration [2]
C[C@@]1(c2ccc(Oc3ccccc3)cc2)OC(=O)N(Nc2ccccc2)C1=O (racemic) [Famoxadone] | 5.8 | 5.77 | 5.7 | 5.8 | 5.75 | 5.83 | 5.67 | > 200 µM
CN(C)C(=O)NC1(c2ccccc2)CCN(CCCC2(c3ccc(Cl)c(Cl)c3)CCCN(C(=O)c3ccccc3)C2)CC1 (stereo in doubt) | 5.96 | 5.67 | 5.69 | 5.74 | 5.62 | 5.35 | 5.63 | 50 µM
Cc1ccc(C)c(C)c1 [1,2,4-Trimethylbenzene] | 5.8 | 5.84 | 5.88 | 5.84 | 5.91 | 5.89 | 5.71 | > 200 µM
Clc1ccccc1Cl [1,2-Dichlorobenzene] | 5.95 | 5.9 | 5.9 | 6 | 6.02 | 6.04 | 5.68 | > 200 µM
Cc1cccc([N+](=O)[O-])c1C [1,2-Dimethyl-3-nitrobenzene] | 5.81 | 5.89 | 5.83 | 5.77 | 5.86 | 5.83 | 5.79 | > 200 µM
Cc1ccc([N+](=O)[O-])cc1C [1,2-Dimethyl-4-nitrobenzene] | 5.84 | 5.96 | 5.89 | 5.8 | 5.86 | 5.8 | 5.81 | > 200 µM
Cc1cc(C)cc(C)c1 [1,3,5-Trimethylbenzene] | 5.85 | 5.84 | 5.83 | 5.9 | 5.89 | 5.99 | 5.72 | > 200 µM
Nc1cccc(N)c1 [1,3-Benzenediamine] | 5.8 | 5.84 | 5.87 | 5.89 | 5.87 | 6 | 5.78 | > 200 µM
C[C@H](O)CCO [1,3-Butanediol] | 5.92 | 5.9 | 5.88 | 6.01 | 6 | 6.02 | 5.74 | > 200 µM
OC(CCl)CCl [1,3-Dichloro-2-propanol] | 5.88 | 5.83 | 5.8 | 5.82 | 5.8 | 5.48 | 5.88 | > 200 µM
CC1(C)C(=O)N(Cl)C(=O)N1Cl [1,3-Dichloro-5,5-dimethylhydantoin] | 5.81 | 5.79 | 5.79 | 5.82 | 5.83 | 5.8 | 5.67 | > 200 µM
Clc1cccc(Cl)c1 [1,3-Dichlorobenzene] | 5.9 | 5.89 | 5.87 | 5.96 | 5.99 | 5.99 | 5.79 | > 200 µM
O=S1(=O)CCCO1 [1,3-Propane sultone] | 5.83 | 5.87 | 5.85 | 5.78 | 5.84 | 5.91 | 5.76 | > 200 µM
Nc1cccc2c(N)cccc12 [1,5-Diaminonaphthalene] | 5.81 | 5.79 | 5.81 | 5.77 | 5.64 | 5.53 | 5.73 | > 200 µM
O=C(OCCCCCCOC(=O)c1ccccc1)c1ccccc1 [1,6-Hexanediol dibenzoate] | 5.83 | 5.82 | 5.69 | 5.68 | 5.63 | 5.49 | 5.57 | 50 µM
CC1(C)C(=O)NC(=O)N1CO [1-(Hydroxymethyl)-5,5-dimethylhydantoin] | 5.87 | 6.04 | 5.96 | 5.91 | 5.91 | 5.85 | 5.69 | > 200 µM
O=[N+]([O-])c1ccc(Cl)cc1 [1-Chloro-4-nitrobenzene] | 5.94 | 5.94 | 5.97 | 5.87 | 6.01 | 6 | 5.75 | > 200 µM
Cc1cccc2ccccc12 [1-Methylnaphthalene] | 6.08 | 6.13 | 5.94 | 6.03 | 5.99 | 6.02 | 6.02 | > 200 µM
CCCCCCCCO [1-Octanol] | 6.08 | 5.99 | 6.03 | 6.07 | 5.95 | 5.95 | 5.81 | > 200 µM
c1nc[nH]n1 [1H-1,2,4-Triazole] | 6.09 | 6.11 | 6 | 6.04 | 6.04 | 6.02 | 5.74 | > 200 µM
CC(C)C(=O)OCC(C)(C)C(OC(=O)C(C)C)C(C)C (stereo unspecified) [2,2,4-Trimethyl-1,3-pentanediol diisobutyrate] | 5.99 | 6.03 | 5.99 | 5.9 | 5.99 | 5.94 | 5.68 | > 200 µM
OCC(CO)(CBr)CBr [2,2-Bis(bromomethyl)-1,3-propanediol] | 6.41 | 5.91 | 5.99 | 5.63 | 5.67 | 5.93 | 5.64 | 200 µM
c1ccc2occc2c1 [2,3-Benzofuran] | 6.06 | 6.1 | 6.03 | 6.13 | 6.02 | 6.03 | 5.78 | > 200 µM
Oc1cc(Cl)c(Cl)cc1Cl [2,4,5-Trichlorophenol] | 5.83 | 5.83 | 5.83 | 5.78 | 5.77 | 3.41 | 5.81 | > 200 µM
Cc1cc(C)c(O)c(C)c1 [2,4,6-Trimethylphenol] | 5.76 | 5.87 | 5.85 | 5.84 | 5.87 | 5.86 | 5.76 | > 200 µM
O=C(O)CCCOc1ccc(Cl)cc1Cl [2,4-DB] | 6.17 | 5.97 | 6.06 | 6.03 | 6.13 | 6.21 | 5.85 | > 200 µM
